# Laboratory results: PubChem BioAssay (NCI)
# Where “and” joins values, the source holds several entries; their conditions need not be identical. Equal values may be shown once.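 Tested at 5 concentrations; 48 h exposure; 96-well plates; endpoints linearly interpolated, else capped at highest concentration. GI50 is the concentration that inhibits growth by half. TGI is the concentration that stops growth completely.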
# Tests used:
# Assay in all cases: growth of human tumour cells (NCI), 48 h
# OVCAR-4 ovarian = tested on: OVCAR-4 ovarian
# CAKI-1 renal = tested on: CAKI-1 renal
# MDA-MB-231 breast = tested on: MDA-MB-231 breast
# EKVX NSCLC = tested on: EKVX NSCLC
# BT-549 breast = tested on: BT-549 breast
# ACHN renal = tested on: ACHN renal
# MOLT-4 leukemia = tested on: MOLT-4 leukemia
# A498 renal = tested on: A498 renal
# DU-145 prostate = tested on: DU-145 prostate
# MDA-MB-435 = tested on: MDA-MB-435
# SN12C renal = tested on: SN12C renal
# A549 NSCLC = tested on: A549 NSCLC
# HT29 colon = tested on: HT29 colon
# NCI-H23 lung = tested on: NCI-H23 lung
# UACC-257 melanoma = tested on: UACC-257 melanoma
# HCT-15 colon = tested on: HCT-15 colon
# PC-3 prostate = tested on: PC-3 prostate
# RPMI-8226 leukemia = tested on: RPMI-8226 leukemia
# SK-OV-3 ovarian = tested on: SK-OV-3 ovarian
# NCI-H226 lung = tested on: NCI-H226 lung
# SK-MEL-28 melanoma = tested on: SK-MEL-28 melanoma
# NCI-H460 lung = tested on: NCI-H460 lung
# RXF 393 renal = tested on: RXF 393 renal
# UO-31 renal = tested on: UO-31 renal
# SF-539 CNS = tested on: SF-539 CNS
# NCI/ADR-RES ovarian = tested on: NCI/ADR-RES ovarian
# OVCAR-5 ovarian = tested on: OVCAR-5 ovarian
# T-47D breast = tested on: T-47D breast
# UACC-62 melanoma = tested on: UACC-62 melanoma
# TK-10 renal = tested on: TK-10 renal
smiles,measurement,setting,value
CO[C@@H](C)Cn1c(=O)n(C)c2cnc3ccc(-c4cncc(C(C)(C)O)c4)cc3c21,TGI,OVCAR-4 ovarian,676 nM and 667 nM
same,GI50,CAKI-1 renal,50.5 nM
same,TGI,CAKI-1 renal,512 nM
same,GI50,MDA-MB-231 breast,166 nM and 44 nM
same,TGI,MDA-MB-231 breast,3870 nM and 2120 nM
same,GI50,EKVX NSCLC,69.1 nM and 66.9 nM
same,TGI,EKVX NSCLC,847 nM and 1400 nM
same,GI50,BT-549 breast,54 nM and 41 nM
same,TGI,BT-549 breast,707 nM and 444 nM
same,GI50,ACHN renal,135 nM and 97.5 nM
same,TGI,ACHN renal,> 100000 nM
same,GI50,MOLT-4 leukemia,196 nM and 163 nM
same,TGI,MOLT-4 leukemia,1770 nM and 4100 nM
same,GI50,A498 renal,27.3 nM and 10.9 nM
same,TGI,A498 renal,124 nM and 59.1 nM
same,GI50,DU-145 prostate,93.5 nM and 59.1 nM
same,TGI,DU-145 prostate,> 100000 nM
same,GI50,MDA-MB-435,146 nM and 71.8 nM
same,TGI,MDA-MB-435,3440 nM and 1160 nM
same,GI50,SN12C renal,112 nM and 54.4 nM
same,TGI,SN12C renal,70000 nM and > 10000 nM
same,GI50,A549 NSCLC,76.8 nM and 53.5 nM
same,TGI,A549 NSCLC,1570 nM and > 3220 nM
same,GI50,HT29 colon,93.3 nM and 75.6 nM
same,TGI,HT29 colon,12700 nM and > 6870 nM
same,GI50,NCI-H23 lung,203 nM and 133 nM
same,TGI,NCI-H23 lung,29800 nM and > 6670 nM
same,GI50,UACC-257 melanoma,195 nM and 93.2 nM
same,TGI,UACC-257 melanoma,741 nM and 538 nM
same,GI50,HCT-15 colon,141 nM and 77.5 nM
same,TGI,HCT-15 colon,23200 nM and > 10000 nM
same,GI50,PC-3 prostate,161 nM and 44.5 nM
same,GI50,RPMI-8226 leukemia,186 nM and 59 nM
same,TGI,RPMI-8226 leukemia,2060 nM and 968 nM
same,GI50,SK-OV-3 ovarian,48.8 nM and 42.4 nM
same,TGI,SK-OV-3 ovarian,358 nM and 285 nM
same,GI50,NCI-H226 lung,40.6 nM
same,TGI,NCI-H226 lung,477 nM
same,GI50,SK-MEL-28 melanoma,143 nM and 77.3 nM
same,TGI,SK-MEL-28 melanoma,2500 nM and 573 nM
same,GI50,NCI-H460 lung,143 nM and 53.9 nM
same,TGI,NCI-H460 lung,> 100000 nM
same,GI50,RXF 393 renal,41.6 nM and 32.5 nM
same,TGI,RXF 393 renal,341 nM and 216 nM
same,GI50,UO-31 renal,34.8 nM and 23.7 nM
same,TGI,UO-31 renal,346 nM and 336 nM
same,GI50,SF-539 CNS,105 nM and 52.5 nM
same,TGI,SF-539 CNS,696 nM and 414 nM
same,GI50,NCI/ADR-RES ovarian,1060 nM and 384 nM
same,TGI,NCI/ADR-RES ovarian,14000 nM and > 10000 nM
same,GI50,OVCAR-5 ovarian,191 nM and 95.6 nM
same,TGI,OVCAR-5 ovarian,> 100000 nM
same,GI50,T-47D breast,40.9 nM and 28.4 nM
same,TGI,T-47D breast,378 nM and 208 nM
same,GI50,UACC-62 melanoma,97.6 nM and 39.4 nM
same,TGI,UACC-62 melanoma,413 nM and 255 nM
same,GI50,TK-10 renal,120 nM and 69.4 nM
same,TGI,TK-10 renal,719 nM and 536 nM
